Patent US9750778B2, “Terminalia chebula and Terminalia bellirica extracts for inhibition of xanthine oxidase” (priority 2013, dated 2017)
Values joined by “and” are separate entries in the source; they are usually repeats but may differ in a detail not shown here. Equal entries are not always repeated. Marks after values point to notes of the source that are not given here.

How the values were obtained:
xanthine oxidase (XO) = assay: Superoxide radical scavenging assay by NBT hypoxanthine/XO method; type: biochemical; details: for % Control (superoxide generation by XO): water blank = 100
Description: One T. chebula (TC) based extract was tested at three different dilutions of 5, 25 and 50 μg/mL, and one T. bellerica (TB) based extract was tested at the same three dilutions. Standard positive control was allopurinol (AP) tested at 1, 5 and 10 μg/mL. […] Stock solutions of test materials were prepared at 20 mg/ml in water (TB and TC) or immediately prior to the experiment. Further dilutions were made in type I sterile water and the effect of test materials on XO-mediated free radical (superoxide) generation was assessed as previously described ([…] al., 2008), using hypoxanthine/XO/NBT (tetrazolium salt) system with the reaction product (formazan) followed at 570 nm with the BioRad microplate spectrophotometer 3550-UV. Allopurinol (AP) was the positive control, double-distilled water was the negative control (blank). P values representing statistical significance were calculated using paired t-test and threshold of statistical significance was fixed at p=0.05 and at least 15% difference as compared to the water control.

hyperuricemic patients = assay: Safety and tolerability assessment in the clinical study; type: in vivo, human; details: 8 weeks treatment; 13 patients per group; extracts 500 mg BID, febuxostat 40 mg OD
Description: Secondary objective: To evaluate the safety and tolerability of Terminalia chebula and Terminalia bellerica in hyperuricemic patients.
Safety lab investigations for hematological, hepatic and renal biochemical parameters were done at baseline and at the end of the study (8 weeks) and also as and when required (in case of any adverse drug reaction (ADR)). Subjects were interviewed for the presence of ADR and the same was recorded in the case report form (CRF). Compliance to therapy was assessed by pill count method.
The subsequent 2 visits were scheduled at 4 weeks interval (visit 3—after 4 weeks of treatment, visit 4—after 8 weeks of treatment), vital signs, general examination; serum uric acid levels were measured. Pill count for study medication was evaluated. At the (prospective) conclusion of the study, Visit 5 (after 12 weeks post treatment), vital signs, general examination, serum uric acid, routine safety lab investigations will be performed. […] Adverse Effects/SAE monitoring would be done throughout the course of study. Safety lab parameters will be done before and after treatment and as and when required. […]
2. Measurements of Tolerability will be assessed at the end of 8 weeks/12 weeks as: Good—no side effects; Fair—mild to moderate side effects; and/or Poor—severe side effects and withdrawal of therapy.

[1] = tested on: serum uric acid levels in patients with hyperuricemia; assay: Randomized, double blind, placebo controlled clinical study on serum uric acid levels; type: in vivo, human; details: extracts 500 mg BID oral, febuxostat 40 mg OD, Mean±SD
Description: A randomized, double blind, placebo controlled, parallel-group study was performed to evaluate the effect of Terminalia chebula and Terminalia bellerica in comparison to Febuxostat and a placebo on serum uric acid levels in patients with hyperuricemia. The present study was a prospective, randomized, double blinded, placebo controlled trial. A total of 52 patients were enrolled to receive the study treatment in a randomized manner. The study was approved by the Institutional Ethics Committee and all the subjects gave written informed consent prior to their participation in the study. Hyperuricemia patients of either gender aged between 18 and 70 years were selected, with serum uric acid level ≧6.0 mg/dL and ≦12.0 mg/dL after having stopped all uric acid-lowering therapy for at least 10 days. Patients who were willing to comply with the requirements of the study and to give voluntary, written informed consent were enrolled into the study. Patients with a gout flare during screening or baseline visit were excluded. Patients currently using aspirin or other NSAIDS, diuretics, other medications with known urate-lowering effects were also excluded from the study. Patients with history or presence of nephrolithiasis or uncontrolled hypertension or diabetes, hepatic and renal impairment, pregnant or lactating females or secondary hyperuricemia (e.g. due to myeloproliferative disorder, or organ transplant) were excluded. After screening, all the eligible patients were randomized to either of the four treatment groups in a double blinded fashion for duration of 8 weeks, prospectively 12 weeks. Group 1—Terminalia chebula 500 mg—1 capsule of 500 mg orally twice a day (BID) after food. Group 2—Terminalia bellerica 500 mg—1 capsule of 500 mg orally twice a day (BID) after food. Group 3—Febuxostat—1 tablet of 40 mg (encapsulated in a similar capsule to that of Terminalia chebula/Terminalia bellerica/placebo capsules) once daily (OD) orally in the morning after food and an identical placebo capsule in the evening after food. […] At each visit they were evaluated for efficacy measurements and safety assessments. Serum uric acid levels were measured at baseline, end of 4 weeks, and end of 8 weeks. […] The subsequent 2 visits were scheduled at 4 weeks interval (visit 3—after 4 weeks of treatment, visit 4—after 8 weeks of treatment), vital signs, general examination; serum uric acid levels were measured. Pill count for study medication was evaluated. […] Study data is expressed as Mean±SD. Primary and secondary outcome measures were analyzed as the mean percentage reduction and absolute change in serum uric acid levels from baseline to 4 weeks, 8 weeks, and (prospectively) 12 weeks of treatment. […]

COX-1 = details: cited from earlier work
5-LOX = details: cited from earlier work
COX-2 = molecular target: T1, COX-2 (Homo sapiens, UniProt P35354); details: cited from earlier work
T1 sequence (P35354 18-604): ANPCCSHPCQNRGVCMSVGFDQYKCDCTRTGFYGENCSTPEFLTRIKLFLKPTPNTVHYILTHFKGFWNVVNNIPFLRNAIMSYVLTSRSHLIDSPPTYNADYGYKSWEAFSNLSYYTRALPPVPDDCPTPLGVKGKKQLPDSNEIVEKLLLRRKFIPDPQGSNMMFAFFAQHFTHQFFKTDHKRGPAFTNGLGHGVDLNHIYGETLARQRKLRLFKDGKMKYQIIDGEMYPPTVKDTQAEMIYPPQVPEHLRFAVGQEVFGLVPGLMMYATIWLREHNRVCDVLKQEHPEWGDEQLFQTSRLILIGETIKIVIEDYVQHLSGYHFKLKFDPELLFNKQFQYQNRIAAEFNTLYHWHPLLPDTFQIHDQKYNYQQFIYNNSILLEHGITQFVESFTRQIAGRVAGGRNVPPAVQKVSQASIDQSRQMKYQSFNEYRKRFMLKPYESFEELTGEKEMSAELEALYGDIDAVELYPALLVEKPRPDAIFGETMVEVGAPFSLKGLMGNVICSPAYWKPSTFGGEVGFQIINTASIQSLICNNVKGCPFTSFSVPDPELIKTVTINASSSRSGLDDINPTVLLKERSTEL

HepG2 cells = details: cited from earlier work
maltase = details: reversible and non-competitive inhibitor; read-out: K(i) value, maltase; cited from earlier work
[2] = from baseline, negative = decrease

Oc1ncnc2[nH]ncc12 [AP, allopurinol]
ED50 (dose required for 50% inhibition of XO) (xanthine oxidase (XO)): 6 µg/mL
% Control (superoxide generation by XO) (xanthine oxidase (XO); test material at 1 μg/ml): 89%
% Control (superoxide generation by XO) (xanthine oxidase (XO); test material at 5 μg/ml): 54%
% Control (superoxide generation by XO) (xanthine oxidase (XO); test material at 10 μg/ml): 43%

Cc1nc(-c2ccc(OCC(C)C)c(C#N)c2)sc1C(=O)O [Febuxostat]
Adverse effects reported (hyperuricemic patients): Two patients in the Febuxostat group had elevated mildly elevated total bilirubin and 1 patient had complained of nausea and vomiting
Serum Uric Acid level at the end of 4 weeks ([1]; 13 patients per group): 7.23 ± 0.72 mg/dL
Serum Uric Acid level at the end of 8 weeks ([1]; 13 patients per group): 6.08 ± 0.6 mg/dL
Mean Percentage Reduction in Serum Uric Acid Level after 8 weeks [1, 2]: −29.58 ± 5.74 %
Mean Percentage Reduction in Serum Uric Acid at the end of 4 weeks [1, 2]: −16.31 ± 5.32*^NS %

beta-1-O-galloyl-2,4-chebuloyl-3,6-(R)-hexahydroxydiphenoyl-D-glucose [Chebulagic acid]
IC50 (COX-1): 15 ± 0.288 µM
IC50 (5-LOX): 2.1 ± 0.057 µM
IC50 (COX-2): 0.92 ± 0.011 µM
Enhancement of the cytotoxicity of doxorubicin (HepG2 cells): 20 fold
Ki (maltase): 6.6 µM
